Assay results reported in patent US4684650A, “Antihypertensive fluorophenylindanyl imidazolidinoneethylpiperazines” (priority 1984, dated 1987).
Read-outs that look alike come from different tables or passages of the source.

Legend:
5-HT pressor responses = assay: Antagonism to 5-HT pressor responses in pithed rats; type: in vivo; conditions: for change in vivo at 0.02 mg/kg / ED50: Rattus norvegicus, iv; for change in vivo at 0.02 mg/kg: read-out: Effects on pressor response of 5-HT, % eff. of 0.02 mg/kg, pithed rats, 0.02 mg/kg, jugular vein; for ED50: read-out: Effects on pressor response of 5-HT, ED50, pithed rats, jugular vein
Procedure: (§1) The rat is anaesthetized with ether, tracheotomized, artificial respired and pithed. The knitting-needle is introduced through the right orbita into the cranial cavity and passed through foramen magnum into the spinal canal as far as possible. The spinal cord is destroyed by turning the needle. After vagotomi both carotides are ligated and a catheter placed in the right one for pressure recording. The rat is adrenalectomized. […] The initial and post medication mean pressor effect is calculated, and the mean pressor effect is calculated as % of the initial value. Two to five preparations are employed for each dose level. The ED50 is determined.

[1] = system: phenylephrine pressor responses; assay: Antagonism to phenylephrine pressor responses in pithed rats; type: in vivo; conditions: for ED50: Rattus norvegicus, iv, read-out: Effects on pressor response of Phenylephrine, ED50; for Phenylephr. antg./5-HT antg. (ratio): pithed rats, ratio of phenylephrine ED50 to 5-HT ED50
Procedure: as §1

5-HT2 receptors = target: T1, 5-HT2 receptors (Rattus norvegicus, UniProt P14842); assay: 3H-spiroperidol binding to 5-HT2 receptors; conditions: rat whole cortex, 0.5 nM 3H-spiroperidol, 0.3 μM sulpiride; read-out: 3H-SPI binding 5-HT2 IC50
T1 construct: Rat whole cortex was homogenized by an Ultra Turrax homogenizer; from tissue; host or cells: rat whole cerebral cortex, crude washed membranes
T1 sequence (P14842 whole entry): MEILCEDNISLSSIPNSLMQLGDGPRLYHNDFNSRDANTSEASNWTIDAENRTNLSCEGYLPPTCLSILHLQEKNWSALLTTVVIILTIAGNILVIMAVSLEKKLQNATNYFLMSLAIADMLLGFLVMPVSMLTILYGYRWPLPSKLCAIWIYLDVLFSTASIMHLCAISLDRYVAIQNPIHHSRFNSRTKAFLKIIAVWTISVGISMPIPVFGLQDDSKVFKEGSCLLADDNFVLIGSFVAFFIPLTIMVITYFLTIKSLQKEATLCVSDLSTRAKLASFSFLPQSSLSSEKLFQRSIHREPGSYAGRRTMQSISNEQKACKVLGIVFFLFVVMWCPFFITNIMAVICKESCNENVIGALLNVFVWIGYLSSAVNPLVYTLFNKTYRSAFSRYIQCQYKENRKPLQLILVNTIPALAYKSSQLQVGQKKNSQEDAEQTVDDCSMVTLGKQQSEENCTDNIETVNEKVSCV
Procedure: ^3 H-spiroperidol binding to 5-HT2 receptors.
Rat whole cortex was homogenized by an Ultra Turrax homogenizer in 100 vol. of 50 mM Tris buffer pH 7.7. The homogenate was centrifuged at 20,000 g for 10 minutes at 4° C. The pellet was rehomogenized in another volume of buffer and centrifuged as mentioned above. The final pellet was rehomogenized in 50 mM Tris buffer pH 7.7 containing 120 mM NaCl, 5 mM KCl, 2 mM CaCl2 and 1 mM MgCl2 (ion mix) in a volume corresponding to 12.5 mg original tissue per ml.
Test drugs were dissolved in water; ^3 H-spiroperidol (NEN, 28-30 Ci/mmol) was diluted in 3 μM sulpiride, and 800 μl membrane suspension were added. Final concentration of ligand and sulpiride were 0.5 nM and 0.3 μM, respectively. The samples were incubated at 37° C. for 10 min. The samples were then filtered under vacuum through Whatman GF/B glass-fiber filters. The tubes were then rinsed with 5 ml incubation buffer, which was poured on the filters. The filters were finally washed twice with 5 ml buffer and placed in counting vials. After addition of 5 ml scintillation fluid (Lumagel) radioactivity was estimated by liquid scintillation counting. Non-specific binding was obtained by adding Mianserin (1 μM) to separate samples. Each drug was tested at least twice at 5 concentrations in triplicate. IC50-values were determined from log concentration-response curves.--The presence of sulpiride excluded binding to dopamine D-2 receptors.

[2] = system: spontaneous hypertensive rats (SHR); assay: Antihypertensive effect in spontaneous hypertensive rats (SHR); type: in vivo; conditions: for change in vivo at 5 mg/kg / ED10: Rattus norvegicus, ip; for change in vivo at 5 mg/kg: 1 h; for peripheral or central action: in words; for Antihypertensive eff. SHR, max eff. in % of 5 mg/kg ip, DAP: diastolic pressure (DAP); for Antihypertensive eff. SHR, max eff. in % of 5 mg/kg ip, DAP / Antihypertensive eff. SHR, max eff. in % of 5 mg/kg ip, SAP: max change within one hour; for Antihypertensive eff. SHR, max eff. in % of 5 mg/kg ip, SAP: systolic pressure (SAP)
Procedure: Antihypertensive effect in spontaneous hypertensive rats (SHR)
The femoral artery of male SHR is cannulated in anaestesia for blood pressure recordings. After a stabilization period of 11/2 h after discontinuation of the anaesthesia initial blood pressure curves are recorded and the systolic (SAP)/diastolic (DAP) pressure determined (-20, -10, 0, min. p.i.) Test substance is injected i.p. and the pressure curve recorded for one hour. The change in SAP/DAP is calculated in percent at mean initial values at different times (10, 20, 30, 40, 50 and 60 minutes after injection). At least two SHR are used per dose level. The maximum change is used for estimation of the drug effect.

[3] = system: 1-5-HTP-induced head shakes; assay: 1-5-HTP-induced head shakes; type: in vivo; conditions: rats, 1-5-HTP 75 mg/kg i.p. after citalopram; for ED50: Rattus norvegicus, sc, read-out: 1-5-HTP-antg. ED50; for 1-5-HTP-antg. ED50: s.c.
Procedure: The rats were pretreated subcutaneously with test compound or saline simultaneously with or 90 min before injection of citalopram (10 mg/kg s.c.).
Each group consisted of 4-12 rats.

[4] = system: methylphenidate induced stereotypies; assay: Methylphenidate Antagonism; type: in vivo, mice; conditions: for ED50: Mus musculus, ip, read-out: MePh antg. ED50, i.p., mice, 2 hours before methylphenidate 60 mg/kg s.c.; for MePh antg. ED50: i.p., mice, 2 hours before methylphenidate 60 mg/kg s.c.
Procedure: The experiments were made as described by Pedersen and Christensen (1972) Acta Pharmacol. et Toxicol. 31, 488-496.--Briefly, test compounds or saline were injected i.p. 2 hours before methylphenidate, 60 mg/kg s.c. 3 pairs of mice were used for each dose level. After methylphenidate injection the mice were placed in observation cages for one hour. The cages were placed on corrugated paper, the corrugation facing upwards.

[5] = read-out: Antihypertensive eff. SHR, max eff. in % of 5 mg/kg ip, DAP, 5 mg/kg ip, diastolic pressure (DAP), max change within one hour
[6] = read-out: Antihypertensive eff. SHR, max eff. in % of 5 mg/kg ip, SAP, 5 mg/kg ip, systolic pressure (SAP), max change within one hour
[7] = read-out: Antihypertensive eff. SHR, ED10 DAP
[8] = read-out: Antihypertensive eff. SHR, ED10 SAP

Row | SMILES | change in vivo at 0.02 mg/kg (5-HT pressor responses) | ED50 (5-HT pressor responses) | ED50 [1] | Phenylephr. antg./5-HT antg. (ratio) [1] | IC50 (5-HT2 receptors) | change in vivo at 5 mg/kg [2, 5] | change in vivo at 5 mg/kg [2, 6] | peripheral or central action [2] | ED50 [3] | ED50 [4] | activity against methylphenidate induced stereotypies ([4]; in words) | ED10 [2, 7] | ED10 [2, 8] | Effects on pressor response of 5-HT, % eff. of 0.02 mg/kg (5-HT pressor responses; pithed rats, jugular vein) | Antihypertensive eff. SHR, max eff. in % of 5 mg/kg ip, DAP ([2]; 5 mg/kg ip) | Antihypertensive eff. SHR, max eff. in % of 5 mg/kg ip, SAP ([2]; 5 mg/kg ip) | 1-5-HTP-antg. ED50 [3] | MePh antg. ED50 [4] | Effects on pressor response of 5-HT, ED50 (5-HT pressor responses; pithed rats, jugular vein) | Antihypertensive eff. SHR, max eff. in % of 5 mg/kg ip, SAP/DAP (inactive) ([2]; 5 mg/kg ip, SAP/DAP)
1 | OCCN1CCN([C@@H]2C[C@@H](c3ccc(F)cc3)c3ccc(C(F)(F)F)cc32)CC1 (racemic) [Tefludazine, (±)trans-4-[3-(4-fluorophenyl)-6-(trifluoromethyl)-indan-1-yl]-1-piperazineethanol, reference compound] | -78% | 0.015 µmol/kg | 1.7 µmol/kg | 115 | 8.6 nM | -24% | -18% | marked central effects | 0.039 µmol/kg | 0.06 µmol/kg | high activity |  |  |  |  |  |  |  |  | 
2 | O=C1NCCN1CCN1CCN([C@@H]2C[C@@H](c3ccc(F)cc3)c3ccccc32)CC1 (relative stereo) [compound 1] | -68% | 0.024 µmol/kg | 3.13 µmol/kg |  | 25 nM | -43% | -33% |  | 1.3 µmol/kg | > 98 µmol/kg |  | 4.2 µmol/kg | 5.9 µmol/kg |  |  |  |  |  |  | 
3 | O=C1NCCN1CCN1CCN([C@@H]2C[C@@H](c3ccc(F)cc3)c3ccc(F)cc32)CC1 (relative stereo) [compound 2] | -89% | 0.017 µmol/kg | 2.55 µmol/kg | 150 | 6.7 nM | -19% | -14% |  | 0.13 µmol/kg | 79 µmol/kg |  | 4.1 µmol/kg | 9.2 µmol/kg |  |  |  |  |  |  | 
4 | CN1CCN(CCN2CCN([C@@H]3C[C@@H](c4ccc(F)cc4)c4ccc(F)cc43)CC2)C1=O (relative stereo) [compound 3] | -87% | 0.01 µmol/kg | 14 µmol/kg | 1400 | 3.4 nM | -13% | -11% |  | 0.08 µmol/kg | > 78 µmol/kg |  |  |  |  |  |  |  |  |  | 
5 | Cc1ccc2c(c1)[C@H](N1CCN(CCN3CCNC3=O)CC1)C[C@H]2c1ccc(F)cc1 (relative stereo) [compound 4, Trans-1-[3-(4-fluorophenyl)-6-methylindan-1-yl]-4-[2-(2-imidazolidinon-1-yl)ethyl]piperazine] | -73% | 0.017 µmol/kg | 2.02 µmol/kg | 119 | 23 nM | -32% | -27% |  | 0.13 µmol/kg | 27 µmol/kg |  | 2.4 µmol/kg | 3.3 µmol/kg |  |  |  |  |  |  | 
6 | Cc1ccc2c(c1)[C@H](N1CCN(CCN3CCOC3=O)CC1)C[C@H]2c1ccc(F)cc1 (relative stereo) [compound 9] | -73% | 0.02 µmol/kg | 1.51 µmol/kg | 76 | 21 nM | -41% | -32% |  | 0.45 µmol/kg | 29 µmol/kg |  | 3.5 µmol/kg | 4.5 µmol/kg |  |  |  |  |  |  | 
7 | CSc1ccc2c(c1)[C@H](N1CCN(CCN3CCOC3=O)CC1)C[C@H]2c1ccc(F)cc1 (relative stereo) [compound 10, Trans-1-[3-(4-fluorophenyl)-6-methylthioindan-1-yl]-4-[2-(2-oxazolidinon-3-yl)ethyl]piperazine] | -57% | 0.034 µmol/kg | 9.4 µmol/kg | 276 | 6.6 nM | -22% | -14% |  | 2.4 µmol/kg | > 76 µmol/kg |  |  |  |  |  |  |  |  |  | 
8 | O=C1NCCN1CCCN1CCN([C@@H]2C[C@@H](c3ccc(F)cc3)c3ccc(F)cc32)CC1 (relative stereo) [compound 14] | -68% | 0.031 µmol/kg | 2.68 µmol/kg | 86 | 6.3 nM | -19% | -12% | mainly possess periferal action | 2 µmol/kg | 56 µmol/kg |  |  |  |  |  |  |  |  |  | 
9 | Fc1ccc([C@@H]2C[C@@H](N3CCN(CCN4CCNC4=S)CC3)c3cc(F)ccc32)cc1 (relative stereo) [compound 24, Trans-1-[3-(4-fluorophenyl)-6-fluoroindan-1-yl]-4-[2-(2-imidazolidinthion-1-yl)ethyl]piperazine] | -88% | 0.01 µmol/kg | 3.7 µmol/kg | 370 | 5.2 nM | -20% | -10% |  | 0.13 µmol/kg | 25 µmol/kg |  |  |  |  |  |  |  |  |  | 
10 | Fc1ccc([C@@H]2C[C@@H](N3CCN(CCN4CCNC4=S)CC3)c3cc(F)ccc32)cc1 (single isomer, unassigned) [+24] | -88% |  |  |  | 2.5 nM | -40% | -32% |  | 0.03 µmol/kg | 17 µmol/kg |  |  |  |  |  |  |  |  |  | 
11 | O=C1NCCN1CCN1CCN([C@@H]2C[C@@H](c3ccc(F)cc3)c3ccccc32)CC1 (single isomer, unassigned) [-1] |  |  |  |  | 130 nM |  |  |  |  |  |  |  |  | -11% | -11% | -3% | 8.9 µmol/kg | > 97 µmol/kg |  | 
12 | O=C1NCCN1CCN1CCN([C@@H]2C[C@@H](c3ccc(F)cc3)c3ccc(F)cc32)CC1 (single isomer, unassigned) [-2] | 2% |  |  |  | 320 nM |  |  |  |  |  |  |  |  |  | +4% | +6% | 20 µmol/kg | > 61 µmol/kg | 1.43 µmol/kg | 
13 | CN1CCN(CCN2CCN([C@@H]3C[C@@H](c4ccc(F)cc4)c4ccc(F)cc43)CC2)C1=O (single isomer, unassigned) [-3] |  |  |  |  | 410 nM |  |  |  |  |  |  |  |  | -6% |  |  | 45 µmol/kg | > 91 µmol/kg |  | I
